# Source: US20240262822A1, “WDR5 INHIBITORS AND MODULATORS” (Vanderbilt University, priority 2021, published 2024)
# Biological target: T1, WDR5 (Homo sapiens, UniProt P61964)
# T1 construct: WDR5-His Tag (A23, residues 24-334) is expressed and purified in our lab; made in house
# Assay: Time Resolved-Fluorescence Energy Transfer (TR-FRET) competition assay, displacement of 10mer-Thr-FAM probe from His-tagged WDR5
# Format: binding
# Conditions: WDR5-His tag 2 nM, 10mer-Thr-FAM 150 nM, 60 minutes at room temperature; read-out: Ki for additional WDR5 inhibitor compounds for Inhibition of WDR5 by TR-FRET assay
# Description: Excess 10mer-Thr-FAM probe was utilized with His-tagged WDR5 in conjunction with a commercial anti-His antibody containing a Terbium label. The LanthaScreen™ Elite Tb-anti-HIS Antibody from ThermoFisher Scientific was used for this purpose. This Tb-anti-HIS has an excitation/emission of 340 nm and 490 nm, respectively. The 10mer-Thr-FAM probe when bound to WDR5 will undergo a FRET interaction with the Tb-anti-HIS and emit at 520 nm. […] WDR5-His Tag (A23, residues 24-334) is expressed and purified in our lab in sufficient quantities for screening. 10mer-Thr-FAM peptide is used at 150 nM. WDR5-His tag protein is used at 2 nM. A source plate is prepared using an Echo Liquid Handler, which distributes the compounds to the assay plate (white, flat-bottom; OptiPlate) in a 10-point, 5-fold dilution schemes with a top concentration of 5 μM, in a final volume of 20 μL. A final target (WDR5)/Tb-Ab concentration of 2 nM/1 nM is dispensed from appropriate stock solutions, respectively. The final DMSO concentration in each well of the assay plate is 1% or lower. The plate is covered, shielded from light, and incubated for 60 minutes at room temperature with rocking. 10mer-Thr-FAM and Anti-His terbium antibody fluorescence is then measured on a Biotek Cytation 3 at excitation wavelength of 340 nm, and emission wavelengths of 495 nm and 520 nm. Working buffer conditions contain 1× Phosphate Buffered Saline, 300 mM NaCl, 0.5 mM TCEP, 0.1% CHAPS, at pH 7.2. TR-FRET signal is plotted and IC50 and Ki values are calculated according to the formula of Wang Z. FEBS Lett (1996) 3, 245.
# where […] is the concentration of the free inhibitor at 50% inhibition, [L]50 is the concentration of the free labeled ligand at 50% inhibition, [P]0 is the concentration of the free protein at 0% inhibition, Kd represents the dissociation constant of the FITC-MLL or 10mer-Thr-FAM probe for WDR5. Total fluorescence is also measured, to rule out compounds that are inherently fluorescent or able to act as quenchers in the assay. TR-FRET binding assay
row,Structure (SMILES),Ki [nM]
1,CCc1cc(C(=O)NC2CCN(C)C2)c2nccc(N3CCc4c(cc(Cn5ccnc5)cc4-c4cn(C)nc4C(F)(F)F)C3=O)c2c1 (stereo not drawn) [Compound B-193],< 0.02
2,COc1cc(-c2nnn[nH]2)c2nc(C)cc(N3CCc4c(cc(Cn5ccnc5)cc4-c4cn(C)nc4C(F)(F)F)C3=O)c2c1 [Compound B-196],0.366
3,CCc1cc(C(=O)NC2CCCC2)c2nccc(N3CCc4c(cc(Cn5ccnc5)cc4-c4cn(C)nc4C(F)(F)F)C3=O)c2c1 [Compound B-164],0.028
4,COc1cc(C(N)=O)c2nc(C)cc(N3CCc4c(cc(Cn5ccnc5)cc4-c4cn(C)nc4C(F)(F)F)C3=O)c2c1 [Compound B-198],0.023
5,Cc1cc(N2CCN(C)CC2)c2cncc(N3CCc4c(cc(Cn5ccnc5)cc4-c4cn(C)nc4C(F)(F)F)C3=O)c2c1 [Compound B-100],0.026
6,COc1cc(N2CCN(C)C(=O)C2)c2nc(C)cc(N3CCc4c(cc(Cn5ccnc5)cc4-c4cn(C)nc4C(F)(F)F)C3=O)c2c1 [Compound B-105],0.022
7,COc1cc(N2CCOCC2)c2nc(C)cc(N3CCc4c(cc(Cn5ccnc5)cc4-c4cn(C)nc4C(F)(F)F)C3=O)c2c1 [Compound B-146],0.025
8,CCc1cc(C(=O)NC2CN(C(C)=O)C2)c2nccc(N3CCc4c(cc(Cn5ccnc5)cc4-c4cn(C)nc4C(F)(F)F)C3=O)c2c1 [Compound B-241],< 0.02
9,COc1cc(N2CCC(NC(C)=O)CC2)c2nc(C)cc(N3CCc4c(cc(Cn5ccnc5)cc4-c4cn(C)nc4C(F)(F)F)C3=O)c2c1 [Compound B-192],0.021
10,COc1cc(C(=O)NC(C)C)c2nccc(N3CCc4c(cc(Cn5ccnc5)cc4-c4cn(C)nc4C(F)(F)F)C3=O)c2c1 [Compound B-47],0.022
11,COc1cc(N2CCN(C)CC2)c2nc(C)cc(N3CCc4c(cc(Cn5ccnc5)cc4-c4cn(C)nc4C(F)(F)F)C3=O)c2c1 [Compound B-102],0.025
12,COc1cc(C#N)c2nccc(N3CCc4c(cc(Cn5ccnc5)cc4-c4cn(C)nc4C(F)(F)F)C3=O)c2c1 [Compound B-205],< 0.02
13,CCc1cc(N2CCN(CCOC)CC2)c2nccc(N3CCc4c(cc(Cn5ccnc5)cc4-c4cn(C)nc4C(F)(F)F)C3=O)c2c1 [Compound B-210],< 0.02
14,CCc1cc(C(=O)NC)c2nccc(N3CCc4c(cc(Cn5ccnc5)cc4-c4cccnc4C(F)(F)F)C3=O)c2c1 [Compound B-199],0.035
15,CCc1cc(C(=O)NC2CN(C(=O)c3ccncc3)C2)c2nccc(N3CCc4c(cc(Cn5ccnc5)cc4-c4cn(C)nc4C(F)(F)F)C3=O)c2c1 [Compound B-225],< 0.02
16,CCc1cc(C(=O)NCCO)c2nccc(N3CCc4c(cc(Cn5ccnc5)cc4-c4cn(C)nc4C(F)(F)F)C3=O)c2c1 [Compound B-168],0.028
17,CCc1cc(C(=O)Nc2nccn2C)c2nccc(N3CCc4c(cc(Cn5ccnc5)cc4-c4cn(C)nc4C(F)(F)F)C3=O)c2c1 [Compound B-161],0.026
18,COc1cc(C(=O)N(C)C)c2nccc(N3CCc4c(cc(Cn5ccnc5)cc4-c4cn(C)nc4C(F)(F)F)C3=O)c2c1 [Compound B-45],0.037
19,CCc1cc(N2CCOCC2)c2nc(C)cc(N3CCc4c(cc(Cn5ccnc5)cc4-c4cn(C)nc4C(F)(F)F)C3=O)c2c1 [Compound B-145],0.02
20,CCc1cc(C(=O)NCc2ccncc2)c2nccc(N3CCc4c(cc(Cn5ccnc5)cc4-c4cn(C)nc4C(F)(F)F)C3=O)c2c1 [Compound B-163],0.024
21,COc1cc(C(=O)N2CCOCC2)c2nccc(N3CCc4c(cc(Cn5ccnc5)cc4-c4cn(C)nc4C(F)(F)F)C3=O)c2c1 [Compound B-46],0.038
22,COc1cc(C2=CCN(C)CC2)c2nc(C)cc(N3CCc4c(cc(Cn5ccnc5)cc4-c4cn(C)nc4C(F)(F)F)C3=O)c2c1 [Compound B-154],0.022
23,CCc1cc(N2CCN(C)C(=O)C2)c2nc(C)cc(N3CCc4c(cc(Cn5ccnc5)cc4-c4cn(C)nc4C(F)(F)F)C3=O)c2c1 [Compound B-111],0.027
24,CCc1cc(N2CCN(C(C)C)CC2)c2nc(C)cc(N3CCc4c(cc(Cn5ccnc5)cc4-c4cn(C)nc4C(F)(F)F)C3=O)c2c1 [Compound B-137],0.032
